Assay [1] concerns the target T1, D-3 receptor expressed in CHO cells (Rattus norvegicus, UniProt P19020).
T1 construct: expressed in transfected cells
Briefly: Inhibition of 125I-iodosulpride binding to membranes of transfected CHO cells (D-3). The settings on record: for Ratio Ki D-2/Ki D-3: D-2 and D-3 receptors expressed in CHO cells. An excerpt: (§1) As far as the measurement of the affinity of the agonists or antagonists towards the polypeptides of the invention is concerned, it may be made under the following conditions:
(§2) The terms agonists and antagonists refer to the actions of the medicines on the D-2 receptors.
(§3) The β2 adrenergic receptor is excised from pSV β2 -MDH by digestions with HindIII and EcoRI and replaced by a SmaI-EcoRI restriction fragment of the clone of the D-2A receptor by using a blunt-ended HindIII nucleotide adaptor leading to the plasmid pSV D-2. The vector needed to express the D-3 receptor is obtained by replacing the HindIII-BglII restriction fragment of pSV D-2 by a EcoRI-BglII restriction fragment of the clone RT-PCR B, by using a HindIII-EcoRI oligonucleotide adaptor leading to the plasmid pSV D-3. […] The stable transfectants are selected in a culture medium (Dulbecco's Modified Eagle medium) not containing hypoxanthine and thymidine.

Assay [2] concerns the target T2, D-2 receptor expressed in CHO cells (Rattus norvegicus, UniProt P61169).
T2 construct: expressed in transfected cells
Briefly: Inhibition of 125I-iodosulpride binding to membranes of transfected CHO cells (D-2). To be noted: for Kd: saturation kinetics at equilibrium, permanently transfected CHO cells.
Excerpt: as §1, §2, §3

For assay [3], the system named is D-2 receptor. The assay can be described thus: 7 OHDPAT-3H specific binding to membranes of CHO cells expressing the D-2 receptor. Details: species or system rat. The settings on record: increasing concentrations of radioligand.
Where [4] appears, read: competition with 125I-iodosulpride, CHO cell membranes, mean ± standard deviation, 2-3 experiments, read-out: Ki Value D-3 receptor.
The mark [5] stands for this setting: competition with 125I-iodosulpride, CHO cell membranes, mean ± standard deviation, 2-3 experiments, read-out: Ki Value D-2 receptor.

Read-outs that look alike come from different tables or passages of the source.

Data on twelve compounds can be found in patent publication US5407823A, “Polypeptides having a dopaminergic receptor activity, nucleic acids coding for these polypeptides and use of these polypeptides for the screening of substances active on these polypeptides” (priority 1990, dated 1995).

In general, Kd refers to the free concentration of one partner at which half of the binding sites on the other are occupied at equilibrium, for simple one-to-one binding. The low end stands for tighter binding, the high end for weaker binding. As a reminder, the Ki is a dissociation constant, usually derived from enzyme kinetics or from competition with a known ligand.

T2 sequence (P61169 whole entry): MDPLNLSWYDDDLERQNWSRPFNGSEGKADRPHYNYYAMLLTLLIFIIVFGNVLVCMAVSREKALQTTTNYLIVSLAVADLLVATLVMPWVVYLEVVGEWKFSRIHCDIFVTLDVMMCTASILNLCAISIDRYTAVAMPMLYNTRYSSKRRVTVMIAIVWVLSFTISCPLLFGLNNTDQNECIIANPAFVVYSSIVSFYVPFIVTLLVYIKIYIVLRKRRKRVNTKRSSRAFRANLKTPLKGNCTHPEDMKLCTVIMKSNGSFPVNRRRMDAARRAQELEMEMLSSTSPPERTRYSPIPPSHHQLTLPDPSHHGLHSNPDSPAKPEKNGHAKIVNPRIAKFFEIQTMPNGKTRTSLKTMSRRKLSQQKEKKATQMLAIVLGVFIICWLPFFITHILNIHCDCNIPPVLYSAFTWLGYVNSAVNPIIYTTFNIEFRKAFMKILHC
T1 sequence (P19020 whole entry): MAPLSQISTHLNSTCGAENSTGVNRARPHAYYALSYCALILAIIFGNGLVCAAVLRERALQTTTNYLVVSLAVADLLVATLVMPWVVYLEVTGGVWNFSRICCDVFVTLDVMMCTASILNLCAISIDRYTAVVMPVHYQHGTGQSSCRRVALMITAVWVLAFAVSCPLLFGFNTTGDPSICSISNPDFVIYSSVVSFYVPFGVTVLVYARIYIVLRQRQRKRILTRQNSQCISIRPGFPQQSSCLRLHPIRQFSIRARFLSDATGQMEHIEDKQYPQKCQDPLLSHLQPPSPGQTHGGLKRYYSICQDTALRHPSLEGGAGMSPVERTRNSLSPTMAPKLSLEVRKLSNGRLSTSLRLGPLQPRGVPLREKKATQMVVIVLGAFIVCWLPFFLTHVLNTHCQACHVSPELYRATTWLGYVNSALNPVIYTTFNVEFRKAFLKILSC

For the compound Iodosulpride, the “Ratio Ki D-2/Ki D-3” value in assay [1] came out at 0.52. For the same compound, the Kd is 1.2 ± 0.2 nM in assay [1] (saturation kinetics at equilibrium, permanently transfected CHO cells); 0.61 ± 0.05 nM in assay [2]; 0.6 nM in assay [2] (listed as 125 I-iodosulpride).
For the compound `CCCN[C@@H]1CCc2c(OC)cccc2[C@@H]1C` [(+)AJ 76], in assay [1], the “Comparison of affinities for D-2 and D-3 receptors (in words)” value (from here on “Comparison of affinities”) is on record as “somewhat but significantly higher affinities for the D-3 receptor than the D-2 receptor”; the “Ratio Ki D-2/Ki D-3” value was 3.0. Further, in assay [1] (setting [4]), the Ki was 91 ± 5 nM. The Ki in assay [2] turned out to be 270 ± 14 nM.
As for `CN1CCc2cccc3c2[C@H]1Cc1ccc(O)c(O)c1-3` [Apomorphine], the Ki in assay [1] (read-out: Ki Value D-3 receptor) turned out to be 20 ± 3 nM.
`CN1CCN(CCCN2c3ccccc3Sc3ccc(S(=O)(=O)N(C)C)cc32)CC1` [Thioproperazine]: the Ki was 1.7 ± 0.1 nM in assay [1] (setting [4]) and 0.21 ± 0.01 nM in assay [2] (setting [5]).
Compound `Oc1cc2c(cc1O)C(c1ccccc1)CNCC2` (stereo not drawn) [SKF 38393] registered a Ki in assay [1] of 5000 nM.
Take `CC(C)C[C@H]1C(=O)N2CCC[C@H]2[C@]2(O)O[C@](NC(=O)[C@@H]3C=C4c5cccc6[nH]c(Br)c(c56)C[C@H]4N(C)C3)(C(C)C)C(=O)N12` [Bromocriptine]: in assay [1], the “Ratio Ki D-2/Ki D-3” value was 0.7. The figures for the Ki in assay [1] (setting [4]) and in assay [2] (setting [5]) were 7.4 ± 1.3 nM and 5.3 ± 0.6 nM, respectively.
For `CN(C)C1CCc2cc(O)c(O)cc2C1` (stereo not drawn) [TL 99], the “Comparison of affinities” value in assay [1] is given as “much less affinity for the D-3 receptor than for the D-2 receptor”.
Take `NCCc1ccc(O)c(O)c1` [Dopamine]: the “Effect of Gpp(NH)p on displacement curve, D-2 receptor” value in assay [2] (presence of Gpp(NH)p) is listed as “shifted to the right”.
In the case of `CCN1CCC[C@H]1CNC(=O)c1c(O)c(Cl)cc(Cl)c1OC` [Raclopride], the Ki in assay [1] (setting [4]) came out at 3.5 ± 0.3 nM.
On to `CCCN(CCC)C1CCc2ccc(O)cc2C1` (stereo not drawn) [7 OHDPAT-^3 H, 7-hydroxy N,N'-dipropylaminotetraline radiolabelled with tritium], for which the “Binding to membranes of cells expressing the D-2 receptor” value in assay [3] was “only very slightly”.
For the compound `CCCN1C[C@H](CSC)C[C@@H]2c3cccc4[nH]cc(c34)C[C@H]21` [Pergolide], the “Comparison of affinities” value in assay [1] is “much less affinity for the D-3 receptor than for the D-2 receptor”.
In the case of `CCCN(CCC)[C@@H]1CCc2c(OC)cccc2[C@@H]1C` [(+)UH 232], in assay [1], the “Comparison of affinities” value is “somewhat but significantly higher affinities for the D-3 receptor than the D-2 receptor”; the Ki is 9.2 ± 0.1 nM; the “Ratio Ki D-2/Ki D-3” value turned out to be 4.4. The compound further had a Ki in assay [2] of 40 ± 1 nM.
